In this assay the target is T1, CFTR del Ex24 (Homo sapiens, UniProt P13569, DEL1292-1321).
T1 construct: expressed in transfected cells; host or cells: HEK 293 cells, transient transfection with Lipofectamine 2000
Briefly: FLIPR membrane potential assay of CFTR function. It counts as cell-based. As to conditions: HEK 293 cells transiently transfected with CFTR del Ex24; activated by forskolin 10 uM; FIG. 1B. As to the method: HEK cells were transiently transfected with a construct bearing a CFTR transcript having exon 24 completely deleted from it (CFTR del Ex24). Transfection was carried out using Lipofectamine 2000 transfection reagent (Invitrogen) according to the lipofectamine 2000 reagent protocol using the following lipofectamine amounts: 96 well—0.15 μl, 6 well—3 μl, 10 mm plate—15 μl. HEK cells transfected with the CFTR del Ex24 construct were grown in 96-well (black, flat bottom; corning) plates. 48 hr post-transfection, CFTR channel function was analyzed using the FLIPR membrane potential assay as previously described (Molinski et al., 2015). Briefly, the cells were loaded with blue membrane potential dye (Molecular Devices), which can detect changes in transmembrane potential. The plate was then read in a fluorescence plate reader (BioTek Synergy H1) for baseline levels followed by CFTR stimulation using the cAMP agonist forskolin (10 μM; Sigma), DMSO vehicle was used as a negative control. CFTR-mediated depolarization of the plasma membrane was detected as an increase in fluorescence and hyperpolarization (or repolarization) as a decrease. […] FLIPR™ (Fluorescence Imaging Plate Reader) is a functional system that allows measuring changes in membrane potential by a fluorescent indicator. […]

Here are results for 1 compound from patent publication US20220064647A1, “COMPOSITIONS AND METHODS FOR TREATING CYSTIC FIBROSIS” (SpliSense Ltd., priority 2019, published 2022).

T1 sequence (P13569 with tags, fused parts or gaps DEL1292-1321): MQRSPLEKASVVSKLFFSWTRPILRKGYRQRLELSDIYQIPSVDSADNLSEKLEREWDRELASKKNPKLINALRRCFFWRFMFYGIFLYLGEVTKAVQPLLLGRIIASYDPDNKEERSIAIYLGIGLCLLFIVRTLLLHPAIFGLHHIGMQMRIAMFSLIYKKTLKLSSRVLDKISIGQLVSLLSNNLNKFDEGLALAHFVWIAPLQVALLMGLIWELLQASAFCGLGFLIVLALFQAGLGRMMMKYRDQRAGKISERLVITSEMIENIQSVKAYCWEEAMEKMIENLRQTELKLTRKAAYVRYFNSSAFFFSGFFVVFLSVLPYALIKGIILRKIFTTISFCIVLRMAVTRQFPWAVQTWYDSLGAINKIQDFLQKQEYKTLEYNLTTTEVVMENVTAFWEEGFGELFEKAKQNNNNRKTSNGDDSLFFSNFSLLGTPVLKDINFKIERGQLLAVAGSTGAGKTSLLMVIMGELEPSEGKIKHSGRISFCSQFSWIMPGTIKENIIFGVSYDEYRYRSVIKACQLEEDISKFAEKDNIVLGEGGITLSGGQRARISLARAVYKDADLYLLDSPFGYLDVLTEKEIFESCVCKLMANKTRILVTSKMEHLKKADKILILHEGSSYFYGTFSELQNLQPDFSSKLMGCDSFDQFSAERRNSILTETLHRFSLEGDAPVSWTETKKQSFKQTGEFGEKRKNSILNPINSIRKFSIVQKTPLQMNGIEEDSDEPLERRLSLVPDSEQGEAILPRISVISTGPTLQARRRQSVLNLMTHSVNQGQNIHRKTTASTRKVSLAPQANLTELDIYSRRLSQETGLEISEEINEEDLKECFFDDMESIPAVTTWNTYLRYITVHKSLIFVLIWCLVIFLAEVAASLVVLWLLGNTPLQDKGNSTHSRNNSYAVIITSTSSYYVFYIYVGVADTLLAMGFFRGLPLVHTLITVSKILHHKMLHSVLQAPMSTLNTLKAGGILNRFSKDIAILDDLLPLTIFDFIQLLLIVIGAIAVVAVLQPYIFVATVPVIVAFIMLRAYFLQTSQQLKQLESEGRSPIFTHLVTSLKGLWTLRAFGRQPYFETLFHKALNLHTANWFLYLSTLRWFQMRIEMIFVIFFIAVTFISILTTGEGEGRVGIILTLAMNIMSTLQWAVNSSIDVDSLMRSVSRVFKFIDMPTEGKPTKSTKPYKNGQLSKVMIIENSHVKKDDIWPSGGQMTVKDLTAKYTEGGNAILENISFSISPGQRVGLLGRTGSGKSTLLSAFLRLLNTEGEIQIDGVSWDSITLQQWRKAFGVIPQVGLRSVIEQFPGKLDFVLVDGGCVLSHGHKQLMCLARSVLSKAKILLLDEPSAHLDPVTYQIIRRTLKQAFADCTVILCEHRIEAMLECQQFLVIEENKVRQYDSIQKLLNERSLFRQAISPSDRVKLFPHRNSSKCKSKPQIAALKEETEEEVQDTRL

As for `CC(C)(C)c1cc(C(C)(C)C)c(NC(=O)c2c[nH]c3ccccc3c2=O)cc1O` [VX-770, N-(2,4-Di-tert-butyl-5-hydroxyphenyl)-4-oxo-1,4-dihydroquinoline-3-carboxamide], the channel activation is 50 % of WT.
